Test results reported in patent publication US20250263390A1, “NOVEL SUBSTITUTED 6,7-DIHYDRO-5H-BENZO[7]ANNULENE COMPOUNDS AND THEIR DERIVATIVES, PROCESSES FOR THEIR PREPARATION AND THERAPEUTIC USES THEREOF” (SANOFI, priority 2022, published 2025).

Molecular target: T1, ERα (Homo sapiens, UniProt P03372)
T1 construct: host or cells: MCF7
T1 sequence (P03372 1-595): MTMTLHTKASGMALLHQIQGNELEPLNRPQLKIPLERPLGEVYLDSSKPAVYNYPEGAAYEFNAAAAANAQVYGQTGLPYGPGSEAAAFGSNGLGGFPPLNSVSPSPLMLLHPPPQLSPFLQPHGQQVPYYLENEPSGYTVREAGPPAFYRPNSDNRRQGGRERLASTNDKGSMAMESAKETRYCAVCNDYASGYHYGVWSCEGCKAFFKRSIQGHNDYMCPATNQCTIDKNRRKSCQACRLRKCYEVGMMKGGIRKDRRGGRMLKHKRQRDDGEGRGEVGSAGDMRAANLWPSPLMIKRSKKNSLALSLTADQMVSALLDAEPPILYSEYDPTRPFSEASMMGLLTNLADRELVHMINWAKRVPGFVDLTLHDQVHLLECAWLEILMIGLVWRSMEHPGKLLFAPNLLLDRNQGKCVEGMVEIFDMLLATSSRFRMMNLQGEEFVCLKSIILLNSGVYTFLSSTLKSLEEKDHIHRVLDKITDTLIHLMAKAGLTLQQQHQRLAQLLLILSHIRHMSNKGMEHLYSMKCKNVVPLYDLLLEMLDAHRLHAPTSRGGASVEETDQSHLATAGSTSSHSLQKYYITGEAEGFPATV
Experiment: Estrogen receptor degradation activity: breast cancer cell ERα in cell western assay
Assay type: cell-based
Conditions: MCF7 cells, 4 hours, relative to fulvestrant 0.1 μM positive control
Experimental: Test: Estrogen Receptor Degradation Activity Said test involves measuring the in vitro degradation activity of the compounds of the Table 1a. The measurements of the degradation activities were made using a breast cancer cell ERα in cell western assay as described hereunder. MCF7 cells (ATCC) were seeded in 384 wells microplate (collagen coated) at a concentration of 10000 cells/30 μL per well in red phenol free MEM alpha medium (invitrogen) containing 5% charcoal dextran striped FBS. The following day, 9 points serial 1:5 dilution of each compound was added to the cells in 2.5p L at final concentrations ranging from 0.3-0.0000018 μM (in table 2), or 0.1 μM for fulvestrant (using as positive control). At 4 hours post compound addition the cells were fixed by adding 25 μL of formalin (final concentration 5% formalin containing 0.1% triton) for 10 minutes at room temperature and then washed twice with PBS. Then, 50 μL of LI-COR blocking buffer containing 0.1% Triton was added to plate for 30 minutes at room temperature. LI-COR blocking buffer was removed and cells were incubated overnight at cold room with 50 μL anti-ER rabbit monoclonal antibody (Thermo scientific MA1-39540) diluted at 1:1000 in LI-COR blocking buffer containing 0.1% tween-20. Wells which were treated with blocking buffer but no antibody were used as background control. Wells were washed twice with PBS (0.1% tween-20) and incubated at 37° C. for 60 minutes in LI-COR (0.1% tween-20) containing goat anti-rabbit antibody Alexa 488 (1:1000) and Syto-64 a DNA dye (2 μM final concentration). Cells were then washed 3 times in PBS and scanned in ACUMEN explorer (TTP-Labtech). Integrated intensities in the green fluorescence and red fluorescence were measured to determine the levels of ERα and DNA respectively. The degradation activity with respect to estrogen receptors in this test is given by the concentration which degrades 50% of the estrogen receptor (or IC50) in nM. The % of ERα levels decrease were determined as follows: % inhibition=100*(1−(sample−fulvestrant: DMSO−fulvestrant)).

SMILES	% Degradation At 0.3 μM
Cl.O=C(O)c1ccc2c(c1)CCCC(c1cccc(OC(F)(F)F)c1)=C2c1ccc(CC2CN(CCCF)C2)cc1 [Compound 22, 9-(4-((1-(3-fluoropropyl)azetidin-3-yl)methyl)phenyl)-8-(3-(trifluoromethoxy)phenyl)-6,7-dihydro-5H-benzo[7]annulene-3-carboxylic acid, hydrochloride]	92%
Cc1cc(C2=C(c3ccc(CC4CN(CCCF)C4)cc3)c3ccc(C(=O)O)cc3CCC2)ccc1C(F)(F)F [Compound 26, 9-(4-((1-(3-fluoropropyl)azetidin-3-yl)methyl)phenyl)-8-(3-methyl-4-(trifluoromethyl)phenyl)-6,7-dihydro-5H-benzo[7]annulene-3-carboxylic acid]	93%
O=C(O)c1ccc2c(c1)CCCC(c1ccccc1OC(F)(F)F)=C2c1ccc(CC2CN(CCCF)C2)cc1 [Compound 30, 9-(4-((1-(3-fluoropropyl)azetidin-3-yl)methyl)phenyl)-8-(2-(trifluoromethoxy)phenyl)-6,7-dihydro-5H-benzo[7]annulene-3-carboxylic acid]	92%
CCc1c(F)cccc1C1=C(c2ccc(CC3CN(CCCF)C3)cc2)c2ccc(C(=O)O)cc2CCC1 [Compound 37, 8-(2-ethyl-3-fluorophenyl)-9-(4-((1-(3-fluoropropyl)azetidin-3-yl)methyl)phenyl)-6,7-dihydro-5H-benzo[7]annulene-3-carboxylic acid]	94%
COc1ccc(C2=C(c3ccc(CC4CN(CCCF)C4)cc3)c3ccc(C(=O)O)cc3CCC2)c(C(F)(F)F)c1.Cl [Compound 25, 9-(4-((1-(3-fluoropropyl)azetidin-3-yl)methyl)phenyl)-8-(4-methoxy-2-(trifluoromethyl)phenyl)-6,7-dihydro-5H-benzo[7]annulene-3-carboxylic acid, hydrochloride]	92%
COc1cc(C2=C(c3ccc(CC4CN(CCCF)C4)cc3)c3ccc(C(=O)O)cc3CCC2)ccc1C(F)(F)F.Cl [Compound 19, 9-(4-((1-(3-fluoropropyl)azetidin-3-yl)methyl)phenyl)-8-(3-methoxy-4-(trifluoromethyl)phenyl)-6,7-dihydro-5H-benzo[7]annulene-3-carboxylic acid, hydrochloride]	93%
C=Cc1c(F)cccc1C1=C(c2ccc(CC3CN(CCCF)C3)cc2)c2ccc(C(=O)O)cc2CCC1 [Compound 36, 8-(3-fluoro-2-vinylphenyl)-9-(4-((1-(3-fluoropropyl)azetidin-3-yl)methyl)phenyl)-6,7-dihydro-5H-benzo[7]annulene-3-carboxylic acid]	92%
COc1ccc(C2=C(c3ccc(CC4CN(CCCF)C4)cc3)c3ccc(C(=O)O)cc3CCC2)cc1C(F)(F)F.Cl [Compound 17, 9-(4-((1-(3-fluoropropyl)azetidin-3-yl)methyl)phenyl)-8-(4-methoxy-3-(trifluoromethyl)phenyl)-6,7-dihydro-5H-benzo[7]annulene-3-carboxylic acid, hydrochloride]	92%
O=C(O)c1ccc2c(c1)CCCC(c1cccc3c1OCCC3)=C2c1ccc(CC2CN(CCCF)C2)cc1 [Compound 9, 8-(chroman-8-yl)-9-(4-((1-(3-fluoropropyl)azetidin-3-yl)methyl)phenyl)-6,7-dihydro-5H-benzo[7]annulene-3-carboxylic acid]	88%
Cc1ccc(C(F)(F)F)cc1C1=C(c2ccc(CC3CN(CCCF)C3)cc2)c2ccc(C(=O)O)cc2CCC1 [Compound 18, 9-(4-((1-(3-fluoropropyl)azetidin-3-yl)methyl)phenyl)-8-(2-methyl-5-(trifluoromethyl)phenyl)-6,7-dihydro-5H-benzo[7]annulene-3-carboxylic acid]	78%

Second part, the molecule after the results:

% Degradation At 0.3 μM	SMILES
91%	O=C(O)c1ccc2c(c1)CCCC(c1c(Cl)cccc1OC(F)(F)F)=C2c1ccc(CC2CN(CCCF)C2)cc1 [Compound 50, 8-(2-chloro-6-(trifluoromethoxy)phenyl)-9-(4-((1-(3-fluoropropyl)azetidin-3-yl)methyl)phenyl)-6,7-dihydro-5H-benzo[7]annulene-3-carboxylic acid]
92%	COc1cccc(C)c1C1=C(c2ccc(CC3CN(CCCF)C3)cc2)c2ccc(C(=O)O)cc2CCC1.Cl [Compound 48, 9-(4-((1-(3-fluoropropyl)azetidin-3-yl)methyl)phenyl)-8-(2-methoxy-6-methylphenyl)-6,7-dihydro-5H-benzo[7]annulene-3-carboxylic acid, hydrochloride]
91%	Cc1cccc(F)c1C1=C(c2ccc(CC3CN(CCCF)C3)cc2)c2ccc(C(=O)O)cc2CCC1.Cl [Compound 41, 8-(2-fluoro-6-methylphenyl)-9-(4-((1-(3-fluoropropyl)azetidin-3-yl)methyl)phenyl)-6,7-dihydro-5H-benzo[7]annulene-3-carboxylic acid, hydrochloride]
100%	Cc1c(C2=C(c3ccc(CC4CN(CCCF)C4)cc3)c3ccc(C(=O)O)cc3CCC2)ccc(C(F)(F)F)c1F.Cl [Compound 64, 8-(3-fluoro-2-methyl-4-(trifluoromethyl)phenyl)-9-(4-((1-(3-fluoropropyl)azetidin-3-yl)methyl)phenyl)-6,7-dihydro-5H-benzo[7]annulene-3-carboxylic acid, hydrochloride]
91%	CCc1cc(C(F)(F)F)ccc1C1=C(c2ccc(CC3CN(CCCF)C3)cc2)c2ccc(C(=O)O)cc2CCC1 [Compound 69, 8-(2-ethyl-4-(trifluoromethyl)phenyl)-9-(4-((1-(3-fluoropropyl)azetidin-3-yl)methyl)phenyl)-6,7-dihydro-5H-benzo[7]annulene-3-carboxylic acid]
93%	COc1cccc(C2=C(c3ccc(CC4CN(CCCF)C4)cc3)c3ccc(C(=O)O)cc3CCC2)c1OC [Compound 46, 8-(2,3-dimethoxyphenyl)-9-(4-((1-(3-fluoropropyl)azetidin-3-yl)methyl)phenyl)-6,7-dihydro-5H-benzo[7]annulene-3-carboxylic acid]
92%	O=C(O)c1ccc2c(c1)CCCC(c1c(F)cccc1OC(F)(F)F)=C2c1ccc(CC2CN(CCCF)C2)cc1 [Compound 43, 8-(2-fluoro-6-(trifluoromethoxy)phenyl)-9-(4-((1-(3-fluoropropyl)azetidin-3-yl)methyl)phenyl)-6,7-dihydro-5H-benzo[7]annulene-3-carboxylic acid]
91%	Cc1cccc(Cl)c1C1=C(c2ccc(CC3CN(CCCF)C3)cc2)c2ccc(C(=O)O)cc2CCC1.Cl [Compound 40, 8-(2-chloro-6-methylphenyl)-9-(4-((1-(3-fluoropropyl)azetidin-3-yl)methyl)phenyl)-6,7-dihydro-5H-benzo[7]annulene-3-carboxylic acid, hydrochloride]
92%	CCc1c(Cl)cccc1C1=C(c2ccc(CC3CN(CCCF)C3)cc2)c2ccc(C(=O)O)cc2CCC1 [Compound 38, 8-(3-chloro-2-ethylphenyl)-9-(4-((1-(3-fluoropropyl)azetidin-3-yl)methyl)phenyl)-6,7-dihydro-5H-benzo[7]annulene-3-carboxylic acid]
92%	COc1cccc(OC)c1C1=C(c2ccc(CC3CN(CCCF)C3)cc2)c2ccc(C(=O)O)cc2CCC1.Cl [Compound 51, 8-(2,6-dimethoxyphenyl)-9-(4-((1-(3-fluoropropyl)azetidin-3-yl)methyl)phenyl)-6,7-dihydro-5H-benzo[7]annulene-3-carboxylic acid, hydrochloride]
90%	Cc1c(O)cccc1C1=C(c2ccc(CC3CN(CCCF)C3)cc2)c2ccc(C(=O)O)cc2CCC1.Cl [Compound 61, 9-(4-((1-(3-fluoropropyl)azetidin-3-yl)methyl)phenyl)-8-(3-hydroxy-2-methylphenyl)-6,7-dihydro-5H-benzo[7]annulene-3-carboxylic acid, hydrochloride]
